Measured values published in patent US10214492B2, “Heterocyclic inhibitors of MCT4” (Vettore, LLC, priority 2016, dated 2019).

Legend:
MCT4 = MCT4 (Homo sapiens (Human), UniProt O15427); assay: Assay 3: MCT4-mediated lactate transport in MDA-MB-231 breast cancer cells; format: cell-based; details: MDA-MB-231 cells; lactate transport
Procedure, shortened: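 Read-out is BCECF fluorescence tracking the intracellular pH shift from MCT4-mediated lactate/H+ co-transport. Before measurement, MDA-MB-231 cells take up BCECF-AM for 5 min at 37° C, then are washed into Tyrode's Solution, pH 7.4.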

MCT1 = MCT1 (Homo sapiens (Human), UniProt P53985); assay: Assay 4: MCT1-mediated lactate transport in BT20 breast cancer cells; format: cell-based; details: Table 27
Chain of MCT1 (P53985 whole entry): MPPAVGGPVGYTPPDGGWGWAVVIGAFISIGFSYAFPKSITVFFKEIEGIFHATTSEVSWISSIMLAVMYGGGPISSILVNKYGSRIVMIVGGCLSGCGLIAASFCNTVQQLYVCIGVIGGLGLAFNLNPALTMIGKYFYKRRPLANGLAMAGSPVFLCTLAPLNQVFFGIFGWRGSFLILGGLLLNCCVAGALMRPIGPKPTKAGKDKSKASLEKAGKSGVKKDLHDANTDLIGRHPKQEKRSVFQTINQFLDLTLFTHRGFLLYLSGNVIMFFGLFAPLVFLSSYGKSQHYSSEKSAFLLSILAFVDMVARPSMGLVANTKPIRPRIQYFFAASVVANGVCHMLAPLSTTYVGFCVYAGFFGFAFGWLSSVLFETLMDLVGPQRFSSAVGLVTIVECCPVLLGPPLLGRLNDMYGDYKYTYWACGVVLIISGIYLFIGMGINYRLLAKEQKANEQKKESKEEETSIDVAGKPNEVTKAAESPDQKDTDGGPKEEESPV
Chain of MCT1 (P35613 140-385 partner): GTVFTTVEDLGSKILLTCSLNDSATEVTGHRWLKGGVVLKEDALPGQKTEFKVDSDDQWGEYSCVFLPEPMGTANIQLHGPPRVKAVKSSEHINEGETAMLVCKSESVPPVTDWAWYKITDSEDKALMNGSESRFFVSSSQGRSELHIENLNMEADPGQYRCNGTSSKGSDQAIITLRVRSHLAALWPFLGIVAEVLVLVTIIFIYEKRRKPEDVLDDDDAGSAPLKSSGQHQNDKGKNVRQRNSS
Procedure, shortened: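 Transport started with 10 mM L-lactate on BCECF-loaded BT20 cells in Tyrode's Solution, pH 7.4. Dye loading: BCECF-AM ester (30 mM DMSO stock), 5 min at 37° C, then one wash.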

[1] = Metabolic stability in human liver microsomes (in vitro t1/2); format: in vitro ADME; details: for half-life at 2 µM: read-out: Human microsome t1/2, min; for Human microsome % 60 min: human liver microsomes
Protocol: (§1) The following are assays that may be used to evaluate the metabolic stability of compounds of Formula (I) in human, rat, or mouse microsomes. The assays follow a common procedure recited below. 1. […] Two separated experiments were performed as follows. a) With NADPH: 10 μL of 20 mg/mL liver microsomes and 40 μL of 10 mM NADPH were added to the incubations. […] The final concentration of microsomes was 0.5 mg/mL. 3. The reaction was started with the addition of 4 μL of 200 μM control compound or test compound solutions. Verapamil was used as positive control in this study. The final concentration of test compound or control compound was 2 μM. 4. Aliquots of 50 μL were taken from the reaction solution at 0, 15, 30, 45 and 60 min. […] Samples were centrifuged at 3,220 g for 40 minutes. A 90 μL aliquot of the supernatant was mixed with 90 μL of ultra-pure H2O and then used for LC-MS/MS analysis. 5. Data analysis. All calculations were carried out using Microsoft Excel. Peak areas were determined from extracted ion chromatograms. The slope value, k, was determined by linear regression of the natural logarithm of the remaining percentage of the parent drug vs. incubation time curve. The in vitro half-life (in vitro t1/2) was determined from the slope value: in vitro t1/2=−(0.693)/k.

[2] = Metabolic stability in rat liver microsomes (in vitro t1/2); format: in vitro ADME; details: for half-life at 2 µM: read-out: Rat microsome t1/2, min; for Rat microsome % 60 min: rat liver microsomes
Protocol: as §1

[3] = Metabolic stability in mouse liver microsomes (in vitro t1/2); format: in vitro ADME; details: for half-life at 2 µM: mouse liver microsomes 0.5 mg/mL, 2 μM compound, read-out: Mouse microsome t1/2, min; for Mouse microsome % 60 min: mouse liver microsomes
Protocol: as §1

[4] = human liver microsomes 0.5 mg/mL, 2 μM compound
[5] = rat liver microsomes 0.5 mg/mL, 2 μM compound

Chain of MCT4 (O15427 whole entry, looked up): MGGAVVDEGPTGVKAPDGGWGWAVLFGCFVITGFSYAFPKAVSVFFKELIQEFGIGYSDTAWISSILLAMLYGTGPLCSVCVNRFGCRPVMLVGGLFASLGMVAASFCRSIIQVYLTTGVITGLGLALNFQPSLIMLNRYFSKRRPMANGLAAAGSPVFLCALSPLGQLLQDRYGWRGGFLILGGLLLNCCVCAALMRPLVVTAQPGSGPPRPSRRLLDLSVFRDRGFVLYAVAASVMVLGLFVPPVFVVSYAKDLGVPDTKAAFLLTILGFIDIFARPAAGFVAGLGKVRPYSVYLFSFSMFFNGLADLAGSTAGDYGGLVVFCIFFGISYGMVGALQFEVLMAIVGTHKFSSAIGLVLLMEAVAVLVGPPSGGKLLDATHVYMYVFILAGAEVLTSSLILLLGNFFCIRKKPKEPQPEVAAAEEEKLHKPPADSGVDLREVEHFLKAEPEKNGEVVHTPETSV
Chain of MCT4 (P35613 whole entry partner, looked up): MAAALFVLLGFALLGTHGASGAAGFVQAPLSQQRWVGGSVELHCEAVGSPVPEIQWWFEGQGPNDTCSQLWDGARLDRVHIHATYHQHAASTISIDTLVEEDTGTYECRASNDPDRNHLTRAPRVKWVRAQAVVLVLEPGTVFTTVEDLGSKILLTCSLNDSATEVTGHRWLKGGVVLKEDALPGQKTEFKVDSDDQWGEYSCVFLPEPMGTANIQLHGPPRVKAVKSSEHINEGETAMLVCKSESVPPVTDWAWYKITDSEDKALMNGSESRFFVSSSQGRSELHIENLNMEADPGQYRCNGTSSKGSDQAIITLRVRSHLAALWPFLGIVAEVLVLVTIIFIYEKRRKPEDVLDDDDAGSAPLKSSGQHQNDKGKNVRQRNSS

Row | Compound | IC50 (MCT4) [nM] | IC50 (MCT1) [nM] | half-life at 2 µM [1, 4] [min] | Human microsome % 60 min [1] [%] | half-life at 2 µM [2, 5] [min] | Rat microsome % 60 min [2] [%] | half-life at 2 µM [3] [min] | Mouse microsome % 60 min [3] [%] | Rat microsome t1/2, min [2, 5] | Human microsome t1/2, min [1, 4]
1 | CC[C@](C)(OCc1cc(-c2cccc(OC)c2)n(Cc2ccccc2Cl)n1)C(=O)O [Example 120, (2S)-2-([1-[(2-chlorophenyl)methyl]-5-(3-methoxyphenyl)-1H-pyrazol-3-yl]methoxy)-2-methylbutanoic Acid] | 4 | 22000 | 198 | 81 | 51 | 44 | 410 | 101 |  | 
2 | CC[C@@](C)(OCc1cc(-c2cccc(OC)c2)n(Cc2ccccc2Cl)n1)C(=O)O [Example 121, (2R)-2-([1-[(2-chlorophenyl)methyl]-5-(3-methoxyphenyl)-1H-pyrazol-3-yl]methoxy)-2-methylbutanoic Acid] | 8 | 21000 | 198 | 82 | 86 | 61 | 186 | 81 |  | 
3 | CC(C)COc1ncc(-c2cc(COC(C)(C)C(=O)O)nn2Cc2ccccc2Cl)s1 [Example 132, 2-([1-[(2-Chlorophenyl)methyl]-5-[2-(2-methylpropoxy)-1,3-thiazol-5-yl]-1H-pyrazol-3-yl]methoxy)-2-methylpropanoic acid] | 8.6 | 8200 | 116 | 70 | 112 | 70 | 98 | 64 |  | 
4 | CC(C)Oc1ncc(-c2cc(COC(C)(C)C(=O)O)nn2Cc2ccccc2Cl)s1 [Example 133, 2-([1-[(2-Chlorophenyl)methyl]-5-[2-(propan-2-yloxy)-1,3-thiazol-5-yl]-1H-pyrazol-3-yl]methoxy)-2-methylpropanoic acid] | 13 | > 33000 | 1010 | 97 | 404 | 91 | 344 | 90 |  | 
5 | CC(C)Cc1ncc(-c2cc(COC(C)(C)C(=O)O)nn2Cc2ccccc2Cl)o1 [Example 134, 2-([1-[(2-Chlorophenyl)methyl]-5-[2-(2-methylpropyl)-1,3-oxazol-5-yl]-1H-pyrazol-3-yl]methoxy)-2-methylpropanoic acid] |  |  | 186 | 80 | 264 | 85 | 109 | 72 |  | 
6 | COc1cccc(-c2cc(COC(C)(C)C(=O)O)nn2Cc2ccccc2OC(C)C)c1 [Example 140, 2-([5-(3-Methoxyphenyl)-1-[[2-(propan-2-yloxy)phenyl]methyl]-1H-pyrazol-3-yl)methoxy)-2-methylpropanoic acid] | 8.3 | 16000 | 109 | 67 | 59 | 48 | 64 | 62 |  | 
7 | CC(C)(C)COc1cccc(-c2cc(COC(C)(C)C(=O)O)nn2-c2ccccc2N2CCC2)c1 [Example 155, 2-([1-[2-(Azetidin-1-yl)phenyl]-5-[3-(2,2-di-methylpropoxy)phenyl]-1H-pyrazol-3-yl]-methoxy)-2-methylpropanoic acid] | 0.32 | > 33000 | 52 | 62 | 73 | 70 | 38 | 37 |  | 
8 | CCn1ncc2ccc(-c3cc(COC(C)(C)C(=O)O)nn3-c3ccccc3Cl)cc21 [Example 157, 2-([1-(2-chlorophenyl)-5-(1-ethyl-1H-indazol-6-yl)-1H-pyrazol-3-yl]methoxy)-2-methylpropanoic acid] |  |  | 149 | 78 | 748 | 97 | 9640 | 102 |  | 
9 | Cn1ncc2cccc(-n3nc(COC(C)(C)C(=O)O)cc3-c3cccc(OC4CCC4)c3)c21 [Example 166, 2-([5-(3-Cyclobutoxyphenyl)-1-(1-methyl-1H-indazol-7-yl)-1H-pyrazol-3-yl]-methoxy)-2-methylpropanoic acid] | 5.9 | 53000 | 1260 | 94 |  | 102 | 194 | 82 | ∞ | 
10 | Cn1ncc2cccc(-n3nc(COC(C)(C)C(=O)O)cc3-c3cccc(OCC4CCC4)c3)c21 [Example 168, 2-([5-[3-(cyclobutylmethoxy)phenyl]-1-(1-methyl-1H-indazol-7-yl)-1H-pyrazol-3-yl]-methoxy)-2-methylpropanoic acid] | 1.7 |  | 187 | 78 | 173 | 81 | 229 | 81 |  | 
11 | CC(C)(C)COc1cccc(-c2cc(COC(C)(C)C(=O)O)nn2-c2ccccc2Cl)c1 [Example 177, 2-([1-(2-chlorophenyl)-5-[3-(2,2-dimethyl-propoxy)phenyl]-1H-pyrazol-3-yl]methoxy)-2-methylpropanoic acid] | 1.4 | 35000 | 184 | 75 | 634 | 90 | 334 | 87 |  | 
12 | CC(C)(OCc1cc(-c2cccc(OCC3CCC3)c2)n(-c2ccccc2Cl)n1)C(=O)O [Example 178, 2-([1-(2-Chlorophenyl)-5-[3-(Cyclobutyl-methoxy)phenyl]-1H-pyrazol-3-yl]-methoxy)-2-methylpropanoic acid] | 2.5 | 27000 | 115 | 66 | 145 | 72 | 125 | 70 |  | 
13 | CC(C)(OCc1cc(-c2cccc(OC3CC3)c2)n(-c2ccc(F)cc2N2CCC2)n1)C(=O)O [Example 183, 2-([1-[2-(Azetidin-1-yl)-4-fluorophenyl]-5-(3-cyclopropoxyphenyl)-1H-pyraz.ol-3-yl]-methoxy)-2-methylpropanoic acid] | 1.3 | 86000 | 99 | 66 | 101 | 71 | 122 | 73 |  | 
14 | Cc1ccccc1-n1nc(COC(C)(C)C(=O)O)cc1-c1cccc(OC2CC2)c1 [Example 188, 2-([5-(3-Cyclopropoxyphenyl)-1-(2-methyl-phenyl)-1H-pyrazol-3-yl]methoxy)-2-methylpropanoic acid] | 7.5 | 15000 |  | 101 | 490 | 87 | 1400 | 92 |  | ∞
15 | CCOc1ccccc1Cn1nc(COC(C)(C)C(=O)O)cc1-c1cc(Cl)cc(OC)c1 [Example 196, 2-([5-(3-Chloro-5-methoxyphenyl)-1-[(2-ethoxyphenyl)methyl]1H-pyrazol-3-yl]-methoxy)-2-methylpropanoic acid] | 1.9 | 38000 | 88 | 62 | 38 | 32 | 37 | 33 |  | 
16 | CCOc1cccc(-n2nc(COC(C)(C)C(=O)O)cc2-c2cc(OC)cc(OC)c2)c1 [Example 243, 2-([5-(3,5-Dimethoxyphenyl)-1-(3-ethoxyphenyl)-1H-pyrazol-3-yl]methoxy)-2-methylpropanoic acid] |  | 78000 | 433 | 88 | 302 | 88 | 1300 | 97 |  | 
